Measured values as given in patent US6660752B2, “2,6-Substituted chroman derivatives useful as beta-3 adrenoreceptor agonists” (Bayer Pharmaceuticals Corporation, priority 2001, dated 2003).
Like-named read-outs stand apart in the source and are kept apart here.

Biological target: T1, human beta-3-adrenergic receptor (Homo sapiens, UniProt P13945)
T1 construct: stably express full-length human beta-3-adrenergic receptor; expressed in transfected cells; host or cells: Chinese hamster ovary (CHO) cells
T1 sequence (P13945 whole entry): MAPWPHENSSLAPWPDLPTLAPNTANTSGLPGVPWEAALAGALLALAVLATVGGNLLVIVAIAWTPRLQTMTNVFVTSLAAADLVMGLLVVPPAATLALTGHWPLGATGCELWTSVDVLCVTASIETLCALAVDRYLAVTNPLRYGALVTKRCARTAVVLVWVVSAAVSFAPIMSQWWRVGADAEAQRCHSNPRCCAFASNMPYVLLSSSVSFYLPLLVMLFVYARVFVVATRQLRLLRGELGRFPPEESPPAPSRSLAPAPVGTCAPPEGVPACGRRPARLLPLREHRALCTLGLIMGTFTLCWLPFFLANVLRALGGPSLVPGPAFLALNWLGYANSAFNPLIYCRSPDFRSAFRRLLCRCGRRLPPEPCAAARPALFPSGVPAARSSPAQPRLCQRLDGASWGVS
Assay: cAMP production (beta-3 agonist activity) in CHO cells stably expressing human beta-3-adrenergic receptor, cAMP SPA
Format: cell-based
Details: CHO cells expressing full-length human beta-3-adrenergic receptor, 30 min incubation, 10 μM to 3 nM
Description: Chinese hamster ovary (CHO) cells that stably express full-length human beta-3-adrenergic receptor (Granneman et al., Mol. Pharmacol. 44:264-270, 1993) can be used in the following procedure. The cell line is grown in 90% F12 nutrient mixture (HAM), 10% fetal bovine serum, 100 units/ml penicillin G sodium, […] streptomycin sulfate, and 2 mM L-glutamine at 37° C. in 95% air and 5% CO2. The transfected cell line is maintained with G-418 (800 μg/ml).
To test the agonist activity, cells are exposed to test compound and then assayed for cAMP production. CHO cells (100 μl) are plated at 5×10^4 cells/well of a 96-well plate (Costar, Cambridge, Mass.) to achieve 70% confluency the next day. After overnight incubation at 37° C., media is removed and the cells are treated for 30 minutes at 37° C. with KRP buffer (120 mM NaCl, 5.1 mM KCl, 0.6 mM MgSO4.7H2O, 0.8 mM CaCl2.H2O, […] phosphate buffer, […] Hepes pH 7.4)+[…] IBMX ([…]), +1% DMSO, +/− test compounds ([…]). Test compounds are assayed from 10 μM to 3 nM with 3-fold serial dilutions. The control agonist, isoproterenol (10 mM stock in 1.1 mM ascorbate), is assayed by 3-fold dilution beginning at 1 μM. After a 30-minute incubation with the test compounds, the buffer/compound mixture is removed. The cells are lysed and cAMP levels are measured using the cAMP SPA screening assay system (Amersham, Arlington Heights, Ill.). The cAMP values are then plotted to determine the EC50 of each compound tested.

[1] = read-out: Beta-3 Agonistic Activity: Compounds with EC50 values ≦1 μM
[2] = read-out: Beta-3 Agonistic Activity: Compounds with EC50 values >1 μM

Row | EC50 [1] | EC50 [2] | Structure (SMILES)
1 | ≤ 1000 nM | – | O=C(O)c1ccc(CCc2ccc3c(c2)CCC(CNC[C@H](O)c2cccnc2)O3)cc1 (stereo in doubt) [Example 215, 4-{2-[(2S)-2-({[(2R)-2-hydroxy-2-(3-pyridinyl)ethyl]amino}methyl)-3,4-dihydro-2H-chromen-6-yl]ethyl}benzoic Acid]
2 | ≤ 1000 nM | – | O=C(O)c1cccc(CCc2ccc3c(c2)CCC(CNC[C@H](O)c2cccnc2)O3)c1 (stereo in doubt) [Example 216, 3-{2-[(2S)-2-({[(2R)-2-hydroxy-2-(3-pyridinyl)ethyl]amino}methyl)-3,4-dihydro-2H-chromen-6-yl]ethyl}benzoic Acid]
3 | ≤ 1000 nM | – | COCC(=O)NS(=O)(=O)c1cccc(-c2ccc3c(c2)CCC(CNC[C@H](O)c2cccnc2)O3)c1 (stereo in doubt) [Example 283, 3-[(2S)-2-({[(2R)-2-hydroxy-2-(3-pyridinyl)ethyl]amino}methyl)-3,4-dihydro-2H-chromen-6-yl]-N-(methoxyacetyl)benzenesulfonamide]
4 | ≤ 1000 nM | – | O[C@@H](CNC[C@H]1CCc2cc(I)ccc2O1)c1cccnc1 [Example 36, (1R)-2-({[(2R)-6-iodo-3,4-dihydro-2H-chromen-2-yl]methyl}amino)-1-(3-pyridinyl)ethanol]
5 | – | > 1000 nM | O[C@@H](CNC[C@H]1CCc2cc(-c3ccc(Cl)c(Cl)c3)ccc2O1)c1cccnc1 [Example 39, (1R)-2-({[(2R)-6-(3,4-dichlorophenyl)-3,4-dihydro-2H-chromen-2-yl]methyl}amino)-1-(3-pyridinyl)ethanol]
6 | ≤ 1000 nM | – | O[C@@H](CNC[C@H]1CCc2cc(-c3ccccc3C(F)(F)F)ccc2O1)c1cccnc1 [Example 40]
7 | – | > 1000 nM | O[C@@H](CNC[C@H]1CCc2cc(-c3cccc(Cl)c3)ccc2O1)c1cccnc1 [Example 41]
8 | – | > 1000 nM | O=[N+]([O-])c1cccc(-c2ccc3c(c2)CC[C@H](CNC[C@H](O)c2cccnc2)O3)c1 [Example 42]
9 | – | > 1000 nM | COc1cccc(-c2ccc3c(c2)CC[C@H](CNC[C@H](O)c2cccnc2)O3)c1 [Example 43]
10 | – | > 1000 nM | Cc1ccc(-c2ccc3c(c2)CC[C@H](CNC[C@H](O)c2cccnc2)O3)cc1 [Example 45]
11 | ≤ 1000 nM | – | O[C@@H](CNC[C@H]1CCc2cc(-c3ccc(-c4ccccc4)cc3)ccc2O1)c1cccnc1 [Example 47]
12 | ≤ 1000 nM | – | O[C@@H](CNC[C@H]1CCc2cc(-c3ccc(F)cc3)ccc2O1)c1cccnc1 [Example 48]
13 | ≤ 1000 nM | – | O[C@@H](CNC[C@H]1CCc2cc(-c3cccc4ccccc34)ccc2O1)c1cccnc1 [Example 54]
14 | ≤ 1000 nM | – | COc1cc(-c2ccc3c(c2)CC[C@H](CNC[C@H](O)c2cccnc2)O3)ccc1C(=O)O [Example 184, 4-[(2R)-2-({[(2R)-2-hydroxy-2-(3-pyridinyl)ethyl]amino}methyl)-3,4-dihydro-2H-chromen-6-yl]-2-methoxybenzoic acid]
15 | ≤ 1000 nM | – | CCOc1cc(-c2ccc3c(c2)CC[C@H](CNC[C@H](O)c2cccnc2)O3)ccc1C(=O)O [Example 185, 2-ethoxy-4-[(2R)-2-({[(2R)-2-hydroxy-2-(3-pyridinyl)ethyl]amino}methyl)-3,4-dihydro-2H-chromen-6-yl]benzoic acid]
16 | ≤ 1000 nM | – | CCCOc1cc(-c2ccc3c(c2)CC[C@H](CNC[C@H](O)c2cccnc2)O3)ccc1C(=O)O [Example 186, 4-[(2R)-2-({[(2R)-2-hydroxy-2-(3-pyridinyl)ethyl]amino}methyl)-3,4-dihydro-2H-chromen-6-yl]-2-propoxybenzoic acid]
17 | ≤ 1000 nM | – | COCCOc1cc(-c2ccc3c(c2)CC[C@H](CNC[C@H](O)c2cccnc2)O3)ccc1C(=O)O [Example 187, 4-[(2R)-2-({[(2R)-2-hydroxy-2-(3-pyridinyl)ethyl]amino}methyl)-3,4-dihydro-2H-chromen-6-yl]-2-(2-methoxyethoxy)benzoic acid]

Row | EC50 [1] | EC50 [2] | Structure (SMILES)
18 | ≤ 1000 nM | – | CC(C)Oc1cc(-c2ccc3c(c2)CC[C@H](CNC[C@H](O)c2cccnc2)O3)ccc1C(=O)O [Example 188, 4-[(2R)-2-({[(2R)-2-hydroxy-2-(3-pyridinyl)ethyl]amino}methyl)-3,4-dihydro-2H-chromen-6-yl]-2-isopropoxybenzoic acid]
19 | ≤ 1000 nM | – | O=C(O)c1ccc(-c2ccc3c(c2)CC[C@H](CNC[C@H](O)c2cccnc2)O3)cc1Oc1ccccc1 [Example 192, 4-[(2R)-2-({[(2R)-2-hydroxy-2-(3-pyridinyl)ethyl]amino}methyl)-3,4-dihydro-2H-chromen-6-yl]-2-(phenyloxy)benzoic Acid]
20 | ≤ 1000 nM | – | O=C(O)c1ccc(-c2ccc3c(c2)CC[C@H](CNC[C@H](O)c2cccnc2)O3)cc1Oc1ccc(F)cc1 [Example 193, 2-(4-fluorophenoxy)-4-[(2R)-2-({[(2R)-2-hydroxy-2-(3-pyridinyl)ethyl]amino}methyl)-3,4-dihydro-2H-chromen-6-yl]benzoic acid]
21 | ≤ 1000 nM | – | O=C(O)c1ccc(-c2ccc3c(c2)CC[C@H](CNC[C@H](O)c2cccnc2)O3)cc1Oc1ccc(Cl)cc1 [Example 194, 2-(4-chlorophenoxy)-4-[(2R)-2-({[(2R)-2-hydroxy-2-(3-pyridinyl)ethyl]amino}methyl)-3,4-dihydro-2H-chromen-6-yl]benzoic acid]
22 | ≤ 1000 nM | – | Cc1ccc(Oc2cc(-c3ccc4c(c3)CC[C@H](CNC[C@H](O)c3cccnc3)O4)ccc2C(=O)O)cc1 [Example 195, 4-[(2R)-2-({[(2R)-2-hydroxy-2-(3-pyridinyl)ethyl]amino}methyl)-3,4-dihydro-2H-chromen-6-yl]-2-(4-methylphenoxy)benzoic acid]
23 | ≤ 1000 nM | – | COc1ccc(Oc2cc(-c3ccc4c(c3)CC[C@H](CNC[C@H](O)c3cccnc3)O4)ccc2C(=O)O)cc1 [Example 196, 4-[(2R)-2-({[(2R)-2-hydroxy-2-(3-pyridinyl)ethyl]amino}methyl)-3,4-dihydro-2H-chromen-6-yl]-2-(4-methoxyphenoxy)benzoic acid]
24 | ≤ 1000 nM | – | CCOC(=O)c1ccc(Oc2cc(-c3ccc4c(c3)CC[C@H](CNC[C@H](O)c3cccnc3)O4)ccc2C(=O)O)cc1 [Example 197, 2-[4-(ethoxycarbonyl)phenoxy]-4-[(2R)-2-({[(2R)-2-hydroxy-2-(3-pyridinyl)ethyl]amino}methyl)-3,4-dihydro-2H-chromen-6-yl]benzoic acid]
25 | ≤ 1000 nM | – | CS(=O)(=O)c1ccc(Oc2cc(-c3ccc4c(c3)CC[C@H](CNC[C@H](O)c3cccnc3)O4)ccc2C(=O)O)cc1 [Example 198, 4-[(2R)-2-({[(2R)-2-hydroxy-2-(3-pyridinyl)ethyl]amino}methyl)-3,4-dihydro-2H-chromen-6-yl]-2-[4-(methylsulfonyl)phenoxy]benzoic acid]
26 | ≤ 1000 nM | – | Cc1ccc(-c2cc(-c3ccc4c(c3)CC[C@H](CNC[C@H](O)c3cccnc3)O4)ccc2C(=O)O)cc1 [Example 205, 5-[(2R)-2-({[(2R)-2-hydroxy-2-(3-pyridinyl)ethyl]amino}methyl)-3,4-dihydro-2H-chromen-6-yl]-4′-methyl-1,1′-biphenyl-2-carboxylic Acid]
27 | ≤ 1000 nM | – | CC(C)Cc1cc(-c2ccc3c(c2)CC[C@H](CNC[C@H](O)c2cccnc2)O3)ccc1C(=O)O [Example 211, 4-[(2R)-2-({[(2R)-2-hydroxy-2-(3-pyridinyl)ethyl]amino}methyl)-3,4-dihydro-2H-chromen-6-yl]-2-isobutylbenzoic Acid]
28 | ≤ 1000 nM | – | O=S(=O)(Nc1ncccn1)c1ccc(-c2ccc3c(c2)CC[C@H](CNC[C@H](O)c2cccnc2)O3)cc1 [Example 249A, 4-[(2R)-2-({[(2R)-2-hydroxy-2-(3-pyridinyl)ethyl]amino}methyl)-3,4-dihydro-2H-chromen-6-yl]-N-(2-pyrimidinyl)benzenesulfonamide]
29 | ≤ 1000 nM | – | O=S(=O)(Nc1ncccn1)c1ccc(-c2ccc3c(c2)CC[C@@H](CNCC(O)c2cccnc2)O3)cc1 (stereo partly drawn) [Example 249B, 4-[(2S)-2-({[-2-hydroxy-2-(3-pyridinyl)ethyl]amino}methyl)-3,4-dihydro-2H-chromen-6-yl]-N-(2-pyrimidinyl)benzenesulfonamide]
30 | ≤ 1000 nM | – | O=S(=O)(Nc1cnccc1C(F)(F)F)c1ccc(-c2ccc3c(c2)CC[C@H](CNC[C@H](O)c2cccnc2)O3)cc1 [Example 251]
31 | ≤ 1000 nM | – | CN1C(=O)c2ccc(NS(=O)(=O)c3cccc(-c4ccc5c(c4)CC[C@H](CNC[C@H](O)c4cccnc4)O5)c3)cc2C1=O [Example 252]
32 | ≤ 1000 nM | – | O=S(=O)(Nc1cccnc1)c1ccc(-c2ccc3c(c2)CC[C@H](CNC[C@H](O)c2cccnc2)O3)cc1 [Example 253, 4-[(2R)-2-({[(2R)-2-hydroxy-2-(3-pyridinyl)ethyl]amino}methyl)-3,4-dihydro-2H-chromen-6-yl]-N-(3-pyridinyl)benzenesulfonamide]
33 | ≤ 1000 nM | – | O=S(=O)(Nc1ccccn1)c1cccc(-c2ccc3c(c2)CC[C@H](CNC[C@H](O)c2cccnc2)O3)c1 [Example 254]
